From PMC8584265, “Stress Driven Discovery of Natural Products From Actinobacteria with Anti-Oxidant and Cytotoxic Activities Including Docking and ADMET Properties” (International Journal of Molecular Sciences, 2021)
≈ marks a conversion by molar mass, not a printed value. Where two headings read alike, the source gives them in different places.

Legend:
blood lymphocytes = assay: Comet assay (genotoxicity); assay type: cell-based
Procedure: To evaluate toxicity, blood lymphocytes were treated with 10 and 20 µg/mL MVL samples, 20 µg/mL EMS (positive), 1% DMSO in PBS (negative control), and comet assay was performed. The slides were envisioned under a fluorescent microscope, and the extent of DNA damage was evaluated by analyzing the photomicrographs via CASP 1.2.3.b image analysis. Analysis of 50–100 cells from each sample was performed to assess comet length, head length, tail length, tail moment, DNA content in the head, and tail of lymphocytes. […] The tail length (18.5 ± 1.4 µm) of EMS-treated DNA clearly indicates the production of nicks in nuclear content, representing a greater extent of genotoxicity. […]

Iron chelating assay = assay type: biochemical; conditions: for IC50 Iron Chelation: mean ± SD, triplicate
Procedure: (§1) To evaluate the antioxidant potential of the stress compound, a multifaceted antioxidant evaluation of a stress compound was performed via DPPH scavenging assay, OH● radical scavenging assay, NO scavenging assay, and Iron chelating assay by following pre-described protocols.

[1] = OH● radical scavenging assay; assay type: biochemical; conditions: for inhibition of OH● radicals: 100 µg/mL; for IC50 OH● Inhibition: mean ± SD, triplicate
Procedure: as §1

[2] = system: prostate cancer cells (PC3); assay: MTT cytotoxicity assay; assay type: cell-based; conditions: Homo sapiens
Procedure: MTT assay was used to assess cytotoxicity against the human prostate PC3 cell line. […] PC3 cells were cultured in a humidified CO2 incubator at 37 °C in complete growth medium RPMI 1640 enriched with 2.2 g/L NaHCO3, 100 µg/mL streptomycin sulfate, 10% v/v heat-inactivated fetal bovine serum (HIFBS), […] amphotericin B, and 100 IU/mL penicillin G sodium. 20 µL of a compound in 1% DMSO in PBS and 180 µL of PC3 cancer cells were combined in a 96-well plate to reach a final concentration of 20 µg/mL for evaluating the cytotoxicity on PC3 cancer cells. The cells were loaded at an assay density of 1 × 10^4 cells/mL. The plate was incubated in humidified 5% CO2 at 37 °C for 24 h, 48 h, and 72 h. Cabazitaxel was utilized as a positive control, and 1 percent DMSO in PBS was employed as a negative control. Cabazitaxel was procured from Enzo life sciences, Fisher Scientific (Thermo Fisher Scientific, California, USA) CAS-183133-96-2 (ENZCHM2170010). A stock solution (4 mg/mL) of Cabazitaxel was prepared in DMSO and diluted in 1× PBS to make it 1% DMSO. Then serial dilutions of the standard compound were prepared in such a way that wells received 50, 25, 12.5, 6.25, and 3.12 µg/mL of Cabazitaxel with ≤1% DMSO. After that, 20 µL of pre-filter sterilized MTT solution was added to plates and incubated at 37 °C for 4 h in a CO2 incubator. Colored formazan crystals were detached by deliberately removing the supernatant and dissolved in 100 µL of DMSO with absorbance measured at 540 nm using Elx 800 microplate reader. Cytotoxicity was calculated using the following formula:% cytotoxicity = [100−(As/Ac × 100)] (1) where As and Ac show the absorbance of sample and negative control, respectively. Cytotoxicity was calculated with GraphPad Prism 5 software.

NO scavenging assay = assay type: biochemical; conditions: for IC50 NO Inhibition: mean ± SD, triplicate
Procedure: as §1

[3] = DPPH radical scavenging assay; assay type: biochemical; conditions: for inhibition of free radical (DPPH): 100 µg/mL; for IC50 DPPH Scavenging: mean ± SD, triplicate
Procedure: as §1

BCL-2 = assay: Western blot expression analysis in PC3 cells; assay type: cell-based, human; conditions: PC3, 0, 5 and 10 µg/mL, 48 h
Procedure: (§2) To unveil the possible mechanistic reason behind the anti-proliferation of cancer cell colonies in MTT assays, expression analysis of apoptotic proteins P53, BCL-2 and BAX were assessed via western blot technique (Figure 6). GAPDH served as a loading control. Prostate cancer cells (PC3) were treated with compound MVL at three concentrations (0, 5, and 10 µg/mL) for 48 h. Protein (40–60 µg) from protein lysate was segregated and probed with specified monoclonal antibodies.
(§3) Figure 6 Western blot analysis of proteins associated with MVL induced apoptosis. Prostate cancer cells, PC3 were treated with MVL at a concentration of 0, 5, and 10 µg/mL for 48 h. […] GAPDH was used as a loading control. Fold change in P-53, BAX, and BCL-2 expression after treating for 48 h with different concentrations of MVL. Means with different superscripts (^a–c) indicate significant (p < 0.001) difference in fold change between groups.
(§4) PC3 cells were cultured in a T75 flask (1 × 10^6/flask). After 48 h, cells were treated with […]. Following treatment, media was aspirated and cells were washed with cold PBS whose pH was maintained at 7.4 trypsinized and pelleted in 15 mL falcon tubes, and cold lysis buffer was added to the pellet. Protein extraction and western blot analysis were done by following the protocol described previously.

P53 = assay: Western blot expression analysis in PC3 cells; assay type: cell-based, human; conditions: PC3, 0, 5 and 10 µg/mL, 48 h
Procedure: as §2, §3, §4

BAX = assay: Western blot expression analysis in PC3 cells; assay type: cell-based, human; conditions: PC3, 0, 5 and 10 µg/mL, 48 h
Procedure: as §2, §3, §4

PC3 cells = assay: In vitro scratch (cell migration) assay; assay type: cell-based, human; conditions: PC3, 10 µg/mL, 24 h treatment; control 16.62 ± 4.4%
Procedure: Stress compound MVL was tested for cell migration of PC3 using an established in vitro scratch test for 24 h. MVL (10 µg/mL) appeared to induce a significant reduction in cell migration at 12 and 24 h treatment of PC3. This was estimated by comparing the scratch area at every observation time as a percentage of control at 0 h. The area of scratch at 24 h treatment with MVL was recorded as 61.10 ± 5.2% compared to control (16.62 ± 4.4%) (Figure 5).
Figure 5 In vitro scratch assay on MVL treated prostate cancer cells. PC3 cells were plated in 6-well plates and scratched at the full confluence. […] Reduction in the area of the scratch was Photographed using Olympus CKX41 microscope and measured using ImageJ software. Data is mean ± SEM percent area of scratch in triplicate at ***: p < 0.001 and ****: p < 0.0001.
In vitro wounds were induced by a modified protocol described, and the scratch assay was performed on cells to study the effect of stress compound on cell migration. In the growth medium of 24-well plates, […] were injected at a density of 5 × 10^4 cells/well. After achieving about 100% proliferation, the cells were shifted to the basal media for 24 h. […] Images were recorded instantly after being wounded and then again portrayed at 0, 12, and 24 h time points. Using Image J software, cell migration rates were quantified by measuring the wound area change (pixels).

Structure (SMILES) | % DNA in Head (blood lymphocytes; 20 µg/mL) | % DNA in Tail (blood lymphocytes; 20 µg/mL) | Comet Length (blood lymphocytes; 20 µg/mL) | Head Length (blood lymphocytes; 20 µg/mL) | Tail Length (blood lymphocytes; 20 µg/mL) | Tail Moment (blood lymphocytes; 20 µg/mL) | iron chelation capacity (Iron chelating assay) | IC50 Iron Chelation (Iron chelating assay) | inhibition of OH● radicals [1] | IC50 OH● Inhibition [1] | IC50 ([2]; 24 h, read-out: IC50 24 h) | IC50 ([2]; 48 h, read-out: IC50 48 h) | IC50 ([2]; 72 h, read-out: IC50 72 h) | inhibition of NO free radicals (NO scavenging assay) | IC50 NO Inhibition (NO scavenging assay) | inhibition of free radical (DPPH) [3] | IC50 DPPH Scavenging [3] | further results
CCOS(C)(=O)=O [EMS, Ethyl methane sulfonate, reference compound] | 56.6 ± 3.5% | 43.4 ± 1.8 ^¥ % | 42.6 ± 3.6 µm | 24.1 ± 2.7 µm | 18.5 ± 1.4 µm | 1.37 ± 0.11 ^¥ µm |  |  |  |  |  |  |  |  |  |  |  | 
O=C(O)CN(CCN(CC(=O)O)CC(=O)O)CC(=O)O [EDTA, reference compound] |  |  |  |  |  |  | 81.52 ± 4.67% | 10.20 ± 6.54 µg/mL (≈ 34.9 µM) |  |  |  |  |  |  |  |  |  | 
O=C(O)c1cc(O)c(O)c(O)c1 [Gallic acid, reference compound] |  |  |  |  |  |  |  |  | 83.15 ± 3.67% | 6.26 ± 6.39 µg/mL (≈ 36.8 µM) |  |  |  |  |  |  |  | 
CO[C@H]1C(=O)[C@]2(C)[C@@H](OC)C[C@H]3OC[C@@]3(OC(C)=O)[C@H]2[C@H](OC(=O)c2ccccc2)[C@]2(O)C[C@H](OC(=O)[C@H](O)[C@@H](NC(=O)OC(C)(C)C)c3ccccc3)C(C)=C1C2(C)C [Cabazitaxel, reference compound] |  |  |  |  |  |  |  |  |  |  | 21.2 ± 5.1 µg/mL (≈ 25.3 µM) | 15.1 ± 5.7 µg/mL (≈ 18.1 µM) | 9.25 ± 3.4 µg/mL (≈ 11.1 µM) |  |  |  |  | 
O=C1O[C@H]([C@@H](O)CO)C(O)=C1O [Ascorbic acid, reference compound] |  |  |  |  |  |  |  |  |  |  |  |  |  | 81.69 ± 2.69% | 8.44 ± 4.17 µg/mL (≈ 47.9 µM) | 84.23 ± 2.9% | 6.52 ± 4.92 µg/mL (≈ 37 µM) | 
CC1=CC(=O)OCC1 [MVL, anhydromevalonolactone] | 80.6 ± 1.8% | 19.4 ± 2.6 ^β, ¥ % | 41.4 ± 2.4 µm | 31.7 ± 1.8 µm | 8.5 ± 1.3 µm | 0.24 ± 0.03 ^β, ¥ µm | 70.96 ± 5.79% | 19.38 ± 7.11 µg/mL (≈ 173 µM) | 72.69 ± 4.93% | 19.65 ± 5.22 µg/mL (≈ 175 µM) | 35.8 ± 4.2 µg/mL (≈ 319 µM) | 23.3 ± 3.8 µg/mL (≈ 208 µM) | 16.2 ± 6.5 µg/mL (≈ 145 µM) | 80.05 ± 3.88% | 15.49 ± 4.8 µg/mL (≈ 138 µM) | 78.18 ± 4.2% | 19.65 ± 5.7 µg/mL (≈ 175 µM) | BCL-2 protein expression (BCL-2): downregulation; P53 protein expression (P53): upregulation; BAX protein expression (BAX): upregulation; area of scratch as percentage of control at 0 h (PC3 cells): 61.10 ± 5.2%; % DNA in Head (blood lymphocytes; 10 µg/mL): 86.1 ± 2.8%; % DNA in Tail (blood lymphocytes; 10 µg/mL): 13.9 ± 1.8 ^β %; Comet Length (blood lymphocytes; 10 µg/mL): 42.6 ± 3.1 µm; Head Length (blood lymphocytes; 10 µg/mL): 36.7 ± 2.5 µm; Tail Length (blood lymphocytes; 10 µg/mL): 5.9 ± 0.3 µm; Tail Moment (blood lymphocytes; 10 µg/mL): 0.11 ± 0.03 ^β µm
